Data reported in article PMC4768790 (The New phytologist, 2015).

Columns and labels:
HopZ1a = HopZ1a (Pseudomonas syringae, UniProt Q6VE93); experiment: in vitro autoacetylation assay, […] autoradiography; format: biochemical; details: 100 nM IP6, [14C]-acetyl-CoA, 50 mM HEPES pH 8.0, 30°C, 1 h; activator
PopP2 = PopP2 (Ralstonia pseudosolanacearum, UniProt Q8Y125); details: labelled compound; 50 mM HEPES pH 8.0, 30°C, 1 h
Sequence of PopP2 (Q8Y125 1-488): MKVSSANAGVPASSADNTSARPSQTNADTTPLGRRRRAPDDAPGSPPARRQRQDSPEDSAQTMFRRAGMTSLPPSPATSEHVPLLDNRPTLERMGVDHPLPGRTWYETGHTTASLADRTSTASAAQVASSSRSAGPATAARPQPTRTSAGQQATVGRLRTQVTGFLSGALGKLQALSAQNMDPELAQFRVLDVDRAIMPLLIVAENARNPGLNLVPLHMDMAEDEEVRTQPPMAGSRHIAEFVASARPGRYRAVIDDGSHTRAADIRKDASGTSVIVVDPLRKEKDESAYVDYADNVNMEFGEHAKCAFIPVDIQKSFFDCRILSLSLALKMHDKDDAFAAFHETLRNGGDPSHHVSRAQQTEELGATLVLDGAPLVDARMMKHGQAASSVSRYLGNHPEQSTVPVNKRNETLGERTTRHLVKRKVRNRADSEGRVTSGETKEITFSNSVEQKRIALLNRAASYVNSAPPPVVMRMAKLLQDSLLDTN

Sequence of HopZ1a (Q6VE93 whole entry): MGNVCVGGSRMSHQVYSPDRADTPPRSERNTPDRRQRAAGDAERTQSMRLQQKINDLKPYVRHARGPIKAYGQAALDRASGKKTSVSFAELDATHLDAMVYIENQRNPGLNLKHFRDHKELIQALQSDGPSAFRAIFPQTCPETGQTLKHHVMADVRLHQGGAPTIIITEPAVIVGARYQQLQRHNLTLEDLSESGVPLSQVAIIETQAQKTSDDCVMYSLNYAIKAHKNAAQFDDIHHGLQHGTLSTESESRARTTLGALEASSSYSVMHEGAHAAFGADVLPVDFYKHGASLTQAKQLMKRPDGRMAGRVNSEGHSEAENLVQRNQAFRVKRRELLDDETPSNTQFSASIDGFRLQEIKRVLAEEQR

| SMILES | enhancement of autoacetylation by IP6 (HopZ1a) | in vitro autoacetylation assay, 14C autoradiography (PopP2) |
| --- | --- | --- |
| O=P(O)(O)O[C@H]1[C@H](OP(=O)(O)O)[C@@H](OP(=O)(O)O)[C@H](OP(=O)(O)O)[C@@H](OP(=O)(O)O)[C@H]1OP(=O)(O)O [IP6] | c. 40 |  |
| CC(=O)SCCNC(=O)CCNC(=O)[C@H](O)C(C)(C)COP(=O)(O)OP(=O)(O)OC[C@H]1O[C@@H](n2cnc3c(N)ncnc32)[C@H](O)[C@@H]1OP(=O)(O)O [acetyl-CoA] |  | the mutant PopP2(S447AS449A) is no longer autoacetylated |
